Experimental data as given in patent US11267807B2, “Use of small molecule inhibitors to KLF10 for modulation of T regulatory cells and cancer immunotherapy” (THE BRIGHAM AND WOMEN'S HOSPITAL, INC., priority 2015, dated 2022).
Like-named read-outs stand apart in the source and are kept apart here. One block for each compound: values may come before it.

What was measured:
GLI = target: T1, GLI (Homo sapiens, UniProt P08151); conditions: 30 μM, transfected HEK293 cells; cited from earlier work
T1 construct: host or cells: HEK293 (transfected)
T1 sequence (P08151 1-1106): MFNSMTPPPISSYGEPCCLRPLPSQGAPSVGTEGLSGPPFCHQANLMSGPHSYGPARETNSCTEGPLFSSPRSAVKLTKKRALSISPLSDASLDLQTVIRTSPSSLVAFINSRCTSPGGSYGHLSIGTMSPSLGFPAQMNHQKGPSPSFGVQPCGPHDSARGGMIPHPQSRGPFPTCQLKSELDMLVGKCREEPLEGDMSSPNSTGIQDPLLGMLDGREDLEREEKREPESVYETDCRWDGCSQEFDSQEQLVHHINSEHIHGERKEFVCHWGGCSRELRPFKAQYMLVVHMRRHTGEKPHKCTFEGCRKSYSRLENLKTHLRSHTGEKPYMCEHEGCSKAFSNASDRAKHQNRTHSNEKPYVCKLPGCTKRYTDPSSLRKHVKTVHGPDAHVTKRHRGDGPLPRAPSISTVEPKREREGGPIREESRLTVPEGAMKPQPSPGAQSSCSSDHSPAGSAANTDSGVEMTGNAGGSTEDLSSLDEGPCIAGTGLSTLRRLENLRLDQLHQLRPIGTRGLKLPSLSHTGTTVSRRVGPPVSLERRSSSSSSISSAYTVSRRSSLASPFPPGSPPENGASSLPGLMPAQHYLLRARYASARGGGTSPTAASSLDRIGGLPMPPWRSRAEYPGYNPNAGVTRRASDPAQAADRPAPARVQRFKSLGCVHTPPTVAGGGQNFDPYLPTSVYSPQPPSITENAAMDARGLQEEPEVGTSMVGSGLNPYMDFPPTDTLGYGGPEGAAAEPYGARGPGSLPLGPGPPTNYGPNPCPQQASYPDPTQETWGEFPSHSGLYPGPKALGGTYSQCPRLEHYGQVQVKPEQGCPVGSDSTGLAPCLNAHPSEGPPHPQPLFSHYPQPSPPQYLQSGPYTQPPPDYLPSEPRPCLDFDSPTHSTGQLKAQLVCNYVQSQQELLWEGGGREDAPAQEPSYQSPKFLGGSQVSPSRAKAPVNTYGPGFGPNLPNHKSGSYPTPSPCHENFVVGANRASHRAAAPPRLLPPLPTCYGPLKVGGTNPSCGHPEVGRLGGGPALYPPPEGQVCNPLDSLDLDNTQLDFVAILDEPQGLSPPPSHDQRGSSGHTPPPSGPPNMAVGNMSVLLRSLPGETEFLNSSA

CD4+CD25− T cells = experiment: T regulatory cell differentiation assay, flow cytometry; assay type: cell-based, mouse; conditions: 3 days culture, FIG. 4A-4C
Protocol: Mouse spleens were meshed through a cell strainer into Phosphate Buffered Saline (PBS) with 2% Fetal Bovine Serum and 1% Penicillin/Streptomycin, and cells were collected by spinning at 1000 rpm for 10 min. CD4+CD25− T cells were purified by using CD4+CD25+ T cell isolation kit (Miltenyi Biotec) according to the manufacturer's instructions. Briefly, cells were incubated with Biotin-conjugated antibodies, followed by anti-biotin microbeads and PE-conjugated anti-CD25 antibody for 30 min on ice with gentle shaking. Mixtures were loaded into pre-washed LD columns in the Magnetic field, and CD4+ cells were collected and then incubated with anti-PE microbeads. Mixtures were loaded into pre-washed MS columns in the magnetic field to collect CD4+CD25− T cells (non-bound cell fraction). Cells were plated into 12-well plates pre-coated with 1 μg/mL anti-CD3e (eBioscience) overnight in RPMI1640 Medium with 10% FBS, 1% Penicillin/Streptomycin, 1% non-essential amino acids, and 2-mercaptoethanol, 1 μg/mL anti-CD28 (BD Biosciences), and 1 ng/mL TGF-β1 (Peprotech). Cells were cultured at 37° C. up to five days for the conversion of CD4+CD25− T cells to CD4+CD25+ T regs. For flow cytometry, cells were stained with anti-mouse CD25 Alexa Fluo®488 (eBioscience) and analyzed by using multicolor FACS (ARIA; BD Biosciences) as previously described.^12

Foxp3 = Foxp3 expression by qPCR during conversion of CD4+CD25− T cells to T regs; assay type: cell-based, mouse; conditions: 50 μM, FIG. 5
Protocol: Taken together, these observations indicate that these compounds effectively suppress the KLF10 target gene Foxp3, a critical regulator of T reg cell differentiation.^28
T cells were suspended in TRIzol® reagent (Invitrogen), and total RNA was isolated according to the manufacturer's instructions. Reverse transcriptions were performed by using the Reverse Transcription Kit and QuantiTect SYBR Green reverse transcription-PCR kit from Qiagen for quantitative real-time quantitative PCR analysis on a Mx3000P real-time PCR system (Stratagene) following the manufacturer's instructions. Primers were used to detect mouse FoxP3 as previously described.^12
Mouse spleens were meshed through a cell strainer into Phosphate Buffered Saline (PBS) with 2% Fetal Bovine Serum and 1% Penicillin/Streptomycin, and cells were collected by spinning at 1000 rpm for 10 min. CD4+CD25− T cells were purified by using CD4+CD25+ T cell isolation kit (Miltenyi Biotec) according to the manufacturer's instructions. Briefly, cells were incubated with Biotin-conjugated antibodies, followed by anti-biotin microbeads and PE-conjugated anti-CD25 antibody for 30 min on ice with gentle shaking. […] For flow cytometry, cells were stained with anti-mouse CD25 Alexa Fluo®488 (eBioscience) and analyzed by using multicolor FACS (ARIA; BD Biosciences) as previously described.^12

KLF10 [1] = target: T2, KLF10 (Homo sapiens, UniProt Q13118); experiment: KLF10 CACCC-luciferase reporter assay in transfected HeLa cells; assay type: cell-based; parameters: host or cells: HeLa; conditions: for inhibition at 100 µM: HeLa
T2 sequence (Q13118 1-480): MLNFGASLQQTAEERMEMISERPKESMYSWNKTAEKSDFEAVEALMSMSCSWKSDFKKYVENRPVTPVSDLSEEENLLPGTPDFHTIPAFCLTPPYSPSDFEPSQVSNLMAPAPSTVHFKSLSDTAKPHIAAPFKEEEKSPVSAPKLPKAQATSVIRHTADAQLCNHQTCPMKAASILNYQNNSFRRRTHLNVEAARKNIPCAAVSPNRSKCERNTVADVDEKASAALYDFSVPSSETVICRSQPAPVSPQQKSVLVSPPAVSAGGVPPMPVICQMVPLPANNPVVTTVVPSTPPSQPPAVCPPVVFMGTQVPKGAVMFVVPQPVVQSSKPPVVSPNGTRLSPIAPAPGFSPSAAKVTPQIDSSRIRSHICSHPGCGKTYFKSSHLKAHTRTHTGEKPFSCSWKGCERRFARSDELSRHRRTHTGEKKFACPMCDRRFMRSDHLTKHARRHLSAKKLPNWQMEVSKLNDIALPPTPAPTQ

B16 melanoma tumor = experiment: In vivo B16 melanoma tumor model; parameters: species or system mice
prostate TRAMP-C2 tumors = experiment: In vivo prostate TRAMP-C2 tumor model; conditions: systemic delivery i.p. Day 3, 200 mg/kg, FIG. 13
TGF-beta1 = TGF-beta1 expression in CD4+ T cells isolated from B16 melanoma tumors; assay type: in vivo; conditions: mice injected i.p., FIG. 14
KLF10 [2] = target: T2, KLF10; experiment: Gel mobility shift assay, KLF10 DNA-binding activity; parameters: GST (N); purchased Novus Biologicals
Protocol: The identified small molecule compounds were next examined for effects on KLF10 DNA-protein binding.
KLF10 recombinant protein was obtained from Novus Biologicals. Oligonucleotides 5′-[…] End-labeled oligos (1 μmol/L) were annealed in a buffer system with 10 mM Tris, 50 mM NaCl, pH 8.0 by heating at 95° C. for 5 min, then slowly cooled to 65° C. for 30 min incubation, and cooled to room temperature. […] Compounds were incubated with KLF10 in a reaction system for 4 hrs at room temperature, and then Biotin-labeled probes were added for a 1 hr incubation. Binding reactions were electrophoresed for 80 min at 100 volts on 6% polyacrylamide gel in 0.5×TBE. The binding reactions were transferred to nylon membranes at 100 volts for 45 min, and transferred DNA was cross-linked to membrane using an HL-2000 Hybrilinker instrument. Biotin-labeled DNAs were detected by chemiluminescence.

[3] = KLF10 reporter activity, 100 μM, Table 1, read-out: % Inhibition at 100 μM (± sd)
[4] = concentration that inhibited 50% of KLF10 reporter activity, Table 1, read-out: IC50

SMILES: c1cc(-c2sc(-c3ccncc3)c(-c3ccncc3)c2-c2ccncc2)ccn1 [GANT58]
GLI-induced transcription (GLI): inhibited

SMILES: CN(C)c1ccccc1CN1CCCN(Cc2ccccc2N(C)C)C1c1ccncc1 [GANT61]
GLI-induced transcription (GLI): inhibited

SMILES: Cc1sc2nc(SCC(=O)c3ccc(O)c(O)c3)nc(O)c2c1C [#15-09]
inhibition of the percentage of CD4+CD25+ T regs (CD4+CD25− T cells): 29.2%
inhibition of Foxp3 expression (Foxp3): 90.8%

inhibition at 100 µM (KLF10 [1]; [3]): 61.7 ± 2.6%
IC50 (KLF10 [1]; [4]): 10 µM
SMILES: Cc1cc(C(=O)Nc2cnc(O)nc2O)ccc1[N+](=O)[O-] [#77]

induction of luciferase activity by exogenous KLF10 expression blocked (KLF10 [1]; 100 μM, FIG. 1C): 96.6%
inhibition at 100 µM (KLF10 [1]; [3]): 54.5 ± 8%
inhibition at 100 µM (KLF10 [1]; KLF10 reporter activity, 100 μM, Table 2, read-out: % Inhibition 100 μM (± sd)): 54.5 ± 8%
IC50 (KLF10 [1]; KLF10 reporter activity, Table 2, read-out: IC50): 112 µM
IC50 (KLF10 [1]; [4]): 112 µM
IC50 (KLF10 [1]; non-linear regression of dose-response, FIG. 2A-2C, read-out: IC50 on KLF10 transcriptional activity): 112 µM
inhibition at 8 µM (KLF10 [2]; 8 μM): 11%
inhibition at 40 µM (KLF10 [2]; 40 μM): 25%
SMILES: Cc1ccc(OCC(=O)c2cc(C)c(O)cc2O)cc1 [#48]
inhibition of the percentage of CD4+CD25+ T regs (CD4+CD25− T cells): 57.4%
inhibition of Foxp3 expression (Foxp3): 84.7%
B16 melanoma tumor inhibition (B16 melanoma tumor; local injection Day 0, 20 mg/kg, FIG. 11): inhibits
B16 melanoma tumor model inhibition (B16 melanoma tumor; systemic delivery i.p. Day 3, 200 mg/kg, FIG. 12): inhibits
prostate TRAMP-C2 tumor inhibition (prostate TRAMP-C2 tumors): inhibits
TGF-beta1 expression in CD4+ T cells from tumors (TGF-beta1): reduced TGF-beta1 expression

inhibition at 100 µM (KLF10 [1]; [3]): 31.9 ± 0.4%
SMILES: OC1=CN=C(O)/C1=C/Nc1ccccc1O [#82]

inhibition at 100 µM (KLF10 [1]; [3]): 71.8 ± 0.9%
IC50 (KLF10 [1]; [4]): 50 µM
SMILES: Cc1ccc(C(=O)c2cc(O)c(O)c([N+](=O)[O-])c2)cc1 [Tolcapone, reference compound]
